Data taken from patent US10947574B2, “Method for producing fermented carotenoid using carotenoid-producing bacteria obtained by using cobalt-containing culturing medium” (ENEOS CORPORATION, priority 2015, dated 2021).

System: Paracoccus sp. strain A-581-1 (FERM BP-4671)
Assay: Example 6: cobalt concentration series, growth (OD610) and carotenoid levels (HPLC)
Format: cell-based
Protocol: In the following examples, carotenoids were quantified by high performance liquid chromatography (HPLC) as follows.
Two columns of Inertsil SIL-100A, 5 μm (ϕ4.6 mm×250 mm) (GL Sciences Inc., Japan) were connected together for use as a column. For elution, a mixed solution of n-hexane, tetrahydrofuran and methanol (40:20:1) serving as a mobile phase was passed through the column at a flow rate of 1.0 mL per minute at a constant temperature around room temperature. For measurement, samples were each dissolved in tetrahydrofuran and diluted 100-fold with the mobile phase, and 20 μL aliquots of the resulting dilutions were injected into the column. The column eluates were detected at a wavelength of 470 nm. As a standard for quantification, astaxanthin (SIGMA, Cat. No. A9335) was used. The astaxanthin concentration of the standard solution was determined using the following equation after measuring the absorbance (A) of the standard solution at 477 nm and the area percentage % (B) of the astaxanthin peak in HPLC analysis under the above conditions.
The ingredients used to prepare the test tube medium for seed culture were obtained from lots where microbial cells had been confirmed to grow well.
The ingredients used to prepare the test tube medium for production were obtained from lots where microbial cells had been confirmed not to grow well.
The resulting culture solution was then inoculated in 0.05 ml volumes into the 7 types of test tube media for production having different cobalt concentrations, and cultured under shaking at 29° C. for 4 days at 300 spm.
After being cultured for 4 days, the culture solutions were each measured for microbial cell growth by OD610 and measure for carotenoid levels by HPLC.

[1] = cobalt added 0.00042 μmol/L, total 0.0024 μmol/L
[2] = cobalt added 0.0042 μmol/L, total 0.0062 μmol/L
[3] = cobalt added 0.042 μmol/L, total 0.044 μmol/L
[4] = cobalt added 0.42 μmol/L, total 0.42 μmol/L
[5] = cobalt added 4.2 μmol/L, total 4.2 μmol/L
[6] = cobalt added 42 μmol/L, total 42 μmol/L

O.O.O.O.O.O.[Cl-].[Cl-].[Co+2] [Cobalt chloride hexahydrate]
Astaxanthin [1]: 0.3 mg/L | OD610 [1]: 3 | Total carotenoid [1]: 0.9 mg/L | Astaxanthin [2]: 0.5 mg/L | OD610 [2]: 5 | Total carotenoid [2]: 1.7 mg/L | Astaxanthin [3]: 2.0 mg/L | OD610 [3]: 21 | Total carotenoid [3]: 5.3 mg/L | Astaxanthin [4]: 2.1 mg/L | OD610 [4]: 22 | Total carotenoid [4]: 5.6 mg/L | Astaxanthin [5]: 1.2 mg/L | OD610 [5]: 21 | Total carotenoid [5]: 5.5 mg/L | Astaxanthin [6]: 0.0 mg/L | OD610 [6]: 2 | Total carotenoid [6]: 0.2 mg/L
